PubChem BioAssay (NCI)
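1) Cells in 96-well plates. 2) Compound, 48 h, 5 concentrations. 3) Linear interpolation between surrounding doses. 4) Unreached endpoint = highest concentration. GI50: concentration for 50% inhibition of growth. At the TGI there is no net growth.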

Tests used:
Test in all cases: NCI-60 cell line screen, 48 h
SF-295 CNS = tested on: SF-295 CNS
SN12C renal = tested on: SN12C renal
SK-MEL-5 melanoma = tested on: SK-MEL-5 melanoma
PC-3 prostate = tested on: PC-3 prostate
CCRF-CEM leukemia = tested on: CCRF-CEM leukemia
HCT-116 colon = tested on: HCT-116 colon
NCI/ADR-RES ovarian = tested on: NCI/ADR-RES ovarian
NCI-H460 lung = tested on: NCI-H460 lung
SK-MEL-28 melanoma = tested on: SK-MEL-28 melanoma
RXF 393 renal = tested on: RXF 393 renal
ACHN renal = tested on: ACHN renal
OVCAR-4 ovarian = tested on: OVCAR-4 ovarian
U251 CNS = tested on: U251 CNS
SNB-75 CNS = tested on: SNB-75 CNS
SNB-19 CNS = tested on: SNB-19 CNS
A498 renal = tested on: A498 renal
HCT-15 colon = tested on: HCT-15 colon
COLO 205 colon = tested on: COLO 205 colon
KM12 colon = tested on: KM12 colon
T-47D breast = tested on: T-47D breast
MOLT-4 leukemia = tested on: MOLT-4 leukemia
MDA-N = tested on: MDA-N
LOX IMVI melanoma = tested on: LOX IMVI melanoma
UACC-62 melanoma = tested on: UACC-62 melanoma
SF-268 CNS = tested on: SF-268 CNS
RPMI-8226 leukemia = tested on: RPMI-8226 leukemia
SK-OV-3 ovarian = tested on: SK-OV-3 ovarian
M14 melanoma = tested on: M14 melanoma
HOP-92 NSCLC = tested on: HOP-92 NSCLC
UACC-257 melanoma = tested on: UACC-257 melanoma
IGROV1 ovarian = tested on: IGROV1 ovarian
K-562 leukemia = tested on: K-562 leukemia
OVCAR-8 ovarian = tested on: OVCAR-8 ovarian
SR leukemia = tested on: SR leukemia
TK-10 renal = tested on: TK-10 renal
MDA-MB-231 breast = tested on: MDA-MB-231 breast
MCF7 breast = tested on: MCF7 breast
HOP-62 NSCLC = tested on: HOP-62 NSCLC
MALME-3M melanoma = tested on: MALME-3M melanoma
EKVX NSCLC = tested on: EKVX NSCLC
MDA-MB-435 = tested on: MDA-MB-435
SW-620 colon = tested on: SW-620 colon
OVCAR-5 ovarian = tested on: OVCAR-5 ovarian
NCI-H226 lung = tested on: NCI-H226 lung
HS 578T breast = tested on: HS 578T breast
UO-31 renal = tested on: UO-31 renal
HT29 colon = tested on: HT29 colon
OVCAR-3 ovarian = tested on: OVCAR-3 ovarian
CAKI-1 renal = tested on: CAKI-1 renal
HL-60(TB) leukemia = tested on: HL-60(TB) leukemia
DU-145 prostate = tested on: DU-145 prostate
A549 NSCLC = tested on: A549 NSCLC
SF-539 CNS = tested on: SF-539 CNS
NCI-H23 lung = tested on: NCI-H23 lung
786-0 renal = tested on: 786-0 renal
NCI-H522 lung = tested on: NCI-H522 lung
SK-MEL-2 melanoma = tested on: SK-MEL-2 melanoma
BT-549 breast = tested on: BT-549 breast
HCC-2998 colon = tested on: HCC-2998 colon

## CC(O)CN(CCN(CC(C)O)CC(C)O)CC(C)O.O=[N+]([O-])O.[Cu+2] (stereo not given)
SF-295 CNS
  GI50: 9.07 µM
  TGI: > 100 µM
SN12C renal
  GI50: > 100 µM
  TGI: > 100 µM
SK-MEL-5 melanoma
  GI50: 24.3 µM
  TGI: 58.2 µM
PC-3 prostate
  GI50: > 100 µM
  TGI: > 100 µM
CCRF-CEM leukemia
  GI50: > 100 µM
  TGI: > 100 µM
HCT-116 colon
  GI50: > 100 µM
  TGI: > 100 µM
NCI/ADR-RES ovarian
  GI50: > 100 µM
  TGI: > 100 µM
NCI-H460 lung
  GI50: 99.2 µM
  TGI: > 100 µM
SK-MEL-28 melanoma
  GI50: > 100 µM
  TGI: > 100 µM
RXF 393 renal
  GI50: > 100 µM
  TGI: > 100 µM
ACHN renal
  GI50: > 100 µM
  TGI: > 100 µM
OVCAR-4 ovarian
  GI50: 73.6 µM
  TGI: > 100 µM
U251 CNS
  GI50: > 100 µM
  TGI: > 100 µM
SNB-75 CNS
  GI50: > 100 µM
  TGI: > 100 µM
SNB-19 CNS
  GI50: 30.5 µM
  TGI: 74.5 µM
A498 renal
  GI50: 30.9 µM
  TGI: 63.3 µM
HCT-15 colon
  GI50: > 100 µM
  TGI: > 100 µM
COLO 205 colon
  GI50: > 100 µM
  TGI: > 100 µM
KM12 colon
  GI50: > 100 µM
  TGI: > 100 µM
T-47D breast
  GI50: > 100 µM
  TGI: > 100 µM
MOLT-4 leukemia
  GI50: > 100 µM
  TGI: > 100 µM
MDA-N
  GI50: > 100 µM
  TGI: > 100 µM
LOX IMVI melanoma
  GI50: > 100 µM
  TGI: > 100 µM
UACC-62 melanoma
  GI50: > 100 µM
  TGI: > 100 µM
SF-268 CNS
  GI50: > 100 µM
  TGI: > 100 µM
RPMI-8226 leukemia
  GI50: > 100 µM
  TGI: > 100 µM
SK-OV-3 ovarian
  GI50: > 100 µM
  TGI: > 100 µM
M14 melanoma
  GI50: > 100 µM
  TGI: > 100 µM
HOP-92 NSCLC
  GI50: > 100 µM
  TGI: > 100 µM
UACC-257 melanoma
  GI50: > 100 µM
  TGI: > 100 µM
IGROV1 ovarian
  GI50: > 100 µM
  TGI: > 100 µM
K-562 leukemia
  GI50: > 100 µM
  TGI: > 100 µM
OVCAR-8 ovarian
  GI50: > 100 µM
  TGI: > 100 µM
SR leukemia
  GI50: > 100 µM
  TGI: > 100 µM
TK-10 renal
  GI50: > 100 µM
  TGI: > 100 µM
MDA-MB-231 breast
  GI50: > 100 µM
  TGI: > 100 µM
MCF7 breast
  GI50: 93.1 µM
  TGI: > 100 µM
HOP-62 NSCLC
  GI50: > 100 µM
  TGI: > 100 µM
MALME-3M melanoma
  GI50: > 100 µM
  TGI: > 100 µM
EKVX NSCLC
  GI50: 67.3 µM
  TGI: > 100 µM
MDA-MB-435
  GI50: > 100 µM
  TGI: > 100 µM
SW-620 colon
  GI50: > 100 µM
  TGI: > 100 µM
OVCAR-5 ovarian
  GI50: > 100 µM
  TGI: > 100 µM
NCI-H226 lung
  GI50: > 100 µM
  TGI: > 100 µM
HS 578T breast
  GI50: > 100 µM
  TGI: > 100 µM
UO-31 renal
  GI50: > 100 µM
  TGI: > 100 µM
HT29 colon
  GI50: > 100 µM
  TGI: > 100 µM
OVCAR-3 ovarian
  GI50: > 100 µM
  TGI: > 100 µM
CAKI-1 renal
  GI50: > 100 µM
  TGI: > 100 µM
HL-60(TB) leukemia
  GI50: > 100 µM
  TGI: > 100 µM
DU-145 prostate
  GI50: > 100 µM
  TGI: > 100 µM
A549 NSCLC
  GI50: 46.5 µM
  TGI: > 100 µM
SF-539 CNS
  GI50: > 100 µM
  TGI: > 100 µM
NCI-H23 lung
  GI50: > 100 µM
  TGI: > 100 µM
786-0 renal
  GI50: > 100 µM
  TGI: > 100 µM
NCI-H522 lung
  GI50: > 100 µM
  TGI: > 100 µM
SK-MEL-2 melanoma
  GI50: > 100 µM
  TGI: > 100 µM
BT-549 breast
  GI50: > 100 µM
  TGI: > 100 µM

## O=C(O)CCCN1CCCCC1
SF-295 CNS
  TGI: > 100 µM
SN12C renal
  TGI: > 100 µM
SK-MEL-5 melanoma
  TGI: > 100 µM
PC-3 prostate
  TGI: > 100 µM
CCRF-CEM leukemia
  TGI: > 100 µM
HCT-116 colon
  TGI: > 100 µM
NCI/ADR-RES ovarian
  TGI: > 100 µM
NCI-H460 lung
  TGI: > 100 µM
SK-MEL-28 melanoma
  TGI: > 100 µM
RXF 393 renal
  TGI: > 100 µM
ACHN renal
  TGI: > 100 µM
OVCAR-4 ovarian
  TGI: > 100 µM
U251 CNS
  TGI: > 100 µM
SNB-75 CNS
  TGI: > 100 µM
SNB-19 CNS
  TGI: > 100 µM
A498 renal
  TGI: > 100 µM
HCT-15 colon
  TGI: > 100 µM
KM12 colon
  TGI: > 100 µM
T-47D breast
  TGI: > 100 µM
MOLT-4 leukemia
  TGI: > 100 µM
MDA-N
  TGI: > 100 µM
LOX IMVI melanoma
  TGI: > 100 µM
UACC-62 melanoma
  TGI: > 100 µM
SF-268 CNS
  TGI: > 100 µM
RPMI-8226 leukemia
  TGI: > 100 µM
M14 melanoma
  TGI: > 100 µM
HOP-92 NSCLC
  TGI: > 100 µM
UACC-257 melanoma
  TGI: > 100 µM
IGROV1 ovarian
  TGI: > 100 µM
K-562 leukemia
  TGI: > 100 µM
OVCAR-8 ovarian
  TGI: > 100 µM
SR leukemia
  TGI: > 100 µM
TK-10 renal
  TGI: > 100 µM
MDA-MB-231 breast
  TGI: > 100 µM
HOP-62 NSCLC
  TGI: > 100 µM
MALME-3M melanoma
  TGI: > 100 µM
EKVX NSCLC
  TGI: > 100 µM
MDA-MB-435
  TGI: > 100 µM
SW-620 colon
  TGI: > 100 µM
OVCAR-5 ovarian
  TGI: > 100 µM
HCC-2998 colon
  TGI: > 100 µM
NCI-H226 lung
  TGI: > 100 µM
HS 578T breast
  TGI: > 100 µM
UO-31 renal
  TGI: > 100 µM
HT29 colon
  TGI: > 100 µM
OVCAR-3 ovarian
  TGI: > 100 µM
CAKI-1 renal
  TGI: > 100 µM
DU-145 prostate
  TGI: > 100 µM
A549 NSCLC
  TGI: > 100 µM
NCI-H23 lung
  TGI: > 100 µM
786-0 renal
  TGI: > 100 µM
NCI-H522 lung
  TGI: > 100 µM
SK-MEL-2 melanoma
  TGI: > 100 µM
BT-549 breast
  TGI: > 100 µM
